Results from article PMC9820167, “Design and Synthesis of Conformationally Flexible Scaffold as Bitopic Ligands for Potent D3-Selective Antagonists” (International Journal of Molecular Sciences, 2022).

How the values were obtained:
Test in all cases: PDSP binding screen
[1] = molecular target: Norepinephrine transporter (NET) (Homo sapiens, UniProt P23975); conditions: for inhibition at 10 µM: read-out: Ki (nM) or % inhibition at 10 µM: Norepinephrine transporter (NET)
Adrenergic beta3 = Adrenergic beta3 (Homo sapiens, UniProt P13945); conditions: for inhibition at 10 µM: read-out: Ki (nM) or % inhibition at 10 µM: beta3
Adrenergic alpha1D = molecular target: T1, Adrenergic alpha1D (Homo sapiens, UniProt P25100); conditions: for inhibition at 10 µM: read-out: Ki (nM) or % inhibition at 10 µM: alpha1D
T1 sequence (P25100 1-572): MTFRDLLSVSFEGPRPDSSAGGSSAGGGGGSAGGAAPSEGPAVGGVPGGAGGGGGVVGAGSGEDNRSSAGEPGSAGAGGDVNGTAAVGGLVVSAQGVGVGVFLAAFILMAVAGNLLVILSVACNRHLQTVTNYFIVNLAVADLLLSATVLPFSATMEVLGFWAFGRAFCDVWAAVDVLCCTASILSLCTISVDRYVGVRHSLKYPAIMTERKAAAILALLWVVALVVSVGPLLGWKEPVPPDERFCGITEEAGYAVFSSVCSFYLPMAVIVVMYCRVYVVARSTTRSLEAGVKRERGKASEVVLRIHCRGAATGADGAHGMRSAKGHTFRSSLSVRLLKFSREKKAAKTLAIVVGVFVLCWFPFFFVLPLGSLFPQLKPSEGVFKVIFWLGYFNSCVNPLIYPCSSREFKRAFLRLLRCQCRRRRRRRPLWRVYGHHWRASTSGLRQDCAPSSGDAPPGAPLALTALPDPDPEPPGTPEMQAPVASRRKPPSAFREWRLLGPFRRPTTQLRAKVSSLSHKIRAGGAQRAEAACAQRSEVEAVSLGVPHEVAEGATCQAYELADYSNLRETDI

Muscarinic M1 = molecular target: T2, Muscarinic M1 (Homo sapiens, UniProt P11229); conditions: for inhibition at 10 µM: read-out: Ki (nM) or % inhibition at 10 µM: M1
T2 sequence (P11229 1-460): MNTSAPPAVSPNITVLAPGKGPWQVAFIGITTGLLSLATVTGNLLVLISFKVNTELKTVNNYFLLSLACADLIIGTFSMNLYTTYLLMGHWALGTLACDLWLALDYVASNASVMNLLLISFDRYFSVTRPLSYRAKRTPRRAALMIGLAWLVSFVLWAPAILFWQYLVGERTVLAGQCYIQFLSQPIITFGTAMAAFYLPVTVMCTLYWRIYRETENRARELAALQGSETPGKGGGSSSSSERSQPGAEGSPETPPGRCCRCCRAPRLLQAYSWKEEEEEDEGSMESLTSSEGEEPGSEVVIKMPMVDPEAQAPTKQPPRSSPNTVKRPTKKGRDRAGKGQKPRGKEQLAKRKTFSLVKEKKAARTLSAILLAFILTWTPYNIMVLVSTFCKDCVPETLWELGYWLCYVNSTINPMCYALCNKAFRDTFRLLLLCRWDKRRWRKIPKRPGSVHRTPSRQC

Muscarinic M2 = molecular target: T3, Muscarinic M2 (Homo sapiens, UniProt P08172); conditions: for inhibition at 10 µM: read-out: Ki (nM) or % inhibition at 10 µM: M2
T3 sequence (P08172 1-466): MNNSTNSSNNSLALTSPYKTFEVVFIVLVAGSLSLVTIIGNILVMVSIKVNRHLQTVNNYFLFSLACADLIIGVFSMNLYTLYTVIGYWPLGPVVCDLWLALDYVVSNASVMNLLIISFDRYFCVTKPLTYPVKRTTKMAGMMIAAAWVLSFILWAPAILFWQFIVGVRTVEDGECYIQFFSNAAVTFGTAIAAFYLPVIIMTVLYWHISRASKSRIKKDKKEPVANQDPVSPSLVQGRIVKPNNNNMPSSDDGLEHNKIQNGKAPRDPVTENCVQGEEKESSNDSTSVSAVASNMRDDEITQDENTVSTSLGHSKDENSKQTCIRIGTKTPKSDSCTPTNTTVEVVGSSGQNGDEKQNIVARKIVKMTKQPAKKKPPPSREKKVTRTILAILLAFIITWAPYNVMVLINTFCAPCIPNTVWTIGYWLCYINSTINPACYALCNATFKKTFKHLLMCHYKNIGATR

Serotonin 5-HT3 = molecular target: T4, Serotonin 5-HT3 (Homo sapiens, UniProt P46098)
T4 sequence (P46098 24-478): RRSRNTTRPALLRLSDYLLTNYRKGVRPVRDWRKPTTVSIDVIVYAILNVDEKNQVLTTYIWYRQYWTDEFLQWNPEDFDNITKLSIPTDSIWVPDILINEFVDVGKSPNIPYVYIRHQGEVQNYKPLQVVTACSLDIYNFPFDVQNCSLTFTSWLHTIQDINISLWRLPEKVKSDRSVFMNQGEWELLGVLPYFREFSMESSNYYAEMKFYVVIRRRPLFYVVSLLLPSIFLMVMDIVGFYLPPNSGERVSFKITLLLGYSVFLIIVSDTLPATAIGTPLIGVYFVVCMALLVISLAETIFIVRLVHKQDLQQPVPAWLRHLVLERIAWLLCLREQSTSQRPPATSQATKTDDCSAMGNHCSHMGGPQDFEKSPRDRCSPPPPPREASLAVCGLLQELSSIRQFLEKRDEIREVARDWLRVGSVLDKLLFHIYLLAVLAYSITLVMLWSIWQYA

Muscarinic M4 = molecular target: T5, Muscarinic M4 (Homo sapiens, UniProt P08173); conditions: for inhibition at 10 µM: read-out: Ki (nM) or % inhibition at 10 µM: M4
T5 sequence (P08173 1-479): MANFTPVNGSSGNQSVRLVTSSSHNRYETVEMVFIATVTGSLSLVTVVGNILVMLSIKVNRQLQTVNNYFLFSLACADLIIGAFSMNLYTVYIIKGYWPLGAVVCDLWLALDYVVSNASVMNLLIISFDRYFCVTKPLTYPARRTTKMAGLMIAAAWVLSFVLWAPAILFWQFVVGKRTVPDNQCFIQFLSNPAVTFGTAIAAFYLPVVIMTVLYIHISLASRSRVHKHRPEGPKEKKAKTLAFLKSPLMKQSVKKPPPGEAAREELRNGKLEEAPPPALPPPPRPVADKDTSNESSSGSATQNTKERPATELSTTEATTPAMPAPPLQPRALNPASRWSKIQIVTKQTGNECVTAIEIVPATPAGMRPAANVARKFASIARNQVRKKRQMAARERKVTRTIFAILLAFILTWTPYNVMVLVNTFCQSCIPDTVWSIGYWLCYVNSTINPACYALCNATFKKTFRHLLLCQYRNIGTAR

Adrenergic beta3, sequence (P13945 whole entry): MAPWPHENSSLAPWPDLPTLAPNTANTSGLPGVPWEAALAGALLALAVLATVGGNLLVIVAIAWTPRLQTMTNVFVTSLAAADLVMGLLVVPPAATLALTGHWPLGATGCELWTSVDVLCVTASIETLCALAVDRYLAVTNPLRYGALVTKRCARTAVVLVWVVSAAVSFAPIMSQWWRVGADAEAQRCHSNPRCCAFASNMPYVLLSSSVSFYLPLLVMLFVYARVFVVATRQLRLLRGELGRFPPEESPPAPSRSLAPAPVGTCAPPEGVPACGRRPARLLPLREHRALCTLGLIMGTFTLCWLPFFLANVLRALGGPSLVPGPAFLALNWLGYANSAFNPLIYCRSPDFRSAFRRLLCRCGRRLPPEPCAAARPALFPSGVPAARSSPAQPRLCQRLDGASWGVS
Norepinephrine transporter (NET), sequence (P23975 whole entry): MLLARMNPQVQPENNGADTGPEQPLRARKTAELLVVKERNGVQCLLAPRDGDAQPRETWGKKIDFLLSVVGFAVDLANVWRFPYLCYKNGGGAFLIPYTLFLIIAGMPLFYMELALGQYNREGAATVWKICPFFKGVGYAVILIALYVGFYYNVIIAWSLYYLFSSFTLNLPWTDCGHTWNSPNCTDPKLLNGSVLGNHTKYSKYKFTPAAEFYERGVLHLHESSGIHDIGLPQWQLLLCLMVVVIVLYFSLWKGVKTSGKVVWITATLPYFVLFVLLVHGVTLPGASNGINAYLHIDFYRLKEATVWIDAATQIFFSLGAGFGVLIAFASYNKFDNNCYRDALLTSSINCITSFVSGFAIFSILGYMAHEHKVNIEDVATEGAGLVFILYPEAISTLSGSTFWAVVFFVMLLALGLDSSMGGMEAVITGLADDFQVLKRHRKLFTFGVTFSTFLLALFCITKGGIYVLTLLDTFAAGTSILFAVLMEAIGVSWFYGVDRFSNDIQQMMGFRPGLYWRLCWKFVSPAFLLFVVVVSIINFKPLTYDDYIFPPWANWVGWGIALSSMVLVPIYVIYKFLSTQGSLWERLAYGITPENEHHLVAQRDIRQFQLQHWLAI

SMILES: CCN(CCCNC(=O)c1ccc(-c2cccs2)cc1)CCNC(=O)c1cc(Br)cc(OC)c1OC [9a, 5-Bromo-N-(2-(ethyl(3-(4-(thiophen-2-yl)benzamido)propyl)amino)ethyl)-2,3-dimethoxybenzamide]
- Ki [1]: 772 nM
- Ki (Adrenergic beta3): 1500 nM
- Ki (Adrenergic alpha1D): 2560 nM
- Ki (Muscarinic M1): 2350 nM
- Ki (Muscarinic M2): 1200 nM
- Ki (Serotonin 5-HT3): 195 nM
- Ki (Muscarinic M4): 1600 nM

SMILES: CCN(CCCNC(=O)c1ccc(-c2ccncc2)cc1)CCNC(=O)c1cc(Br)cc(OC)c1OC [21c, 5-Bromo-N-(2-(ethyl(3-(4-(pyridin-4-yl)benzamido)propyl)amino)ethyl)-2,3-dimethoxybenzamide]
- inhibition at 10 µM [1]: < 50%
- inhibition at 10 µM (Adrenergic beta3): < 50%
- inhibition at 10 µM (Adrenergic alpha1D): < 50%
- Ki (Muscarinic M1): 3390 nM
- Ki (Muscarinic M2): 1660 nM
- Ki (Serotonin 5-HT3): 58 nM
- Ki (Muscarinic M4): 930 nM

SMILES: CCCN(CCCNC(=O)c1ccc(-c2cccs2)cc1)CCNC(=O)c1cc(Br)cc(OC)c1OC [20a, 5-Bromo-2,3-dimethoxy-N-(2-(propyl(3-(4-(thiophen-2-yl)benzamido)propyl)amino)ethyl)benzamide]
- Ki [1]: 3510 nM
- Ki (Adrenergic beta3): 1390 nM
- Ki (Adrenergic alpha1D): 2420 nM
- inhibition at 10 µM (Muscarinic M1): < 50%
- Ki (Muscarinic M2): 4930 nM
- Ki (Serotonin 5-HT3): 103 nM
- inhibition at 10 µM (Muscarinic M4): < 50%

SMILES: CCN(CCCNC(=O)c1ccc(-c2ccsc2)cc1)CCNC(=O)c1cc(Br)cc(OC)c1OC [21g, 5-Bromo-N-(2-(ethyl(3-(4-(thiophen-3-yl)benzamido)propyl)amino)ethyl)-2,3-dimethoxybenzamide]
- Ki [1]: 1940 nM
- Ki (Adrenergic beta3): 2960 nM
- Ki (Adrenergic alpha1D): 1410 nM
- Ki (Muscarinic M1): 3430 nM
- inhibition at 10 µM (Muscarinic M2): < 50%
- Ki (Serotonin 5-HT3): 195 nM
- Ki (Muscarinic M4): 1090 nM

SMILES: CCN(CCCNC(=O)c1cn2ccccc2n1)CCNC(=O)c1cc(Br)cc(OC)c1OC [21e, N-(3-((2-(5-Bromo-2,3-dimethoxybenzamido)ethyl)(ethyl)amino)propyl)imidazo[1,2-a]pyridine-2-carboxamide]
- inhibition at 10 µM [1]: < 50%
- Ki (Adrenergic beta3): 5560 nM
- inhibition at 10 µM (Adrenergic alpha1D): < 50%
- inhibition at 10 µM (Muscarinic M1): < 50%
- Ki (Muscarinic M2): 9440 nM
- Ki (Serotonin 5-HT3): 148 nM
- inhibition at 10 µM (Muscarinic M4): < 50%

SMILES: CCN(CCCNC(=O)c1ccc2ccccc2c1)CCNC(=O)c1cc(Br)cc(OC)c1OC [21a, N-(3-((2-(5-Bromo-2,3-dimethoxybenzamido)ethyl)(ethyl)amino)propyl)-2-naphthamide]
- Ki [1]: 391 nM
- Ki (Adrenergic beta3): 4530 nM
- inhibition at 10 µM (Adrenergic alpha1D): < 50%
- inhibition at 10 µM (Muscarinic M1): < 50%
- inhibition at 10 µM (Muscarinic M2): < 50%
- Ki (Serotonin 5-HT3): 53 nM
- inhibition at 10 µM (Muscarinic M4): < 50%

SMILES: CCN(CCCNC(=O)c1cc2ccccc2[nH]1)CCNC(=O)c1cc(Br)cc(OC)c1OC [21d, N-(3-((2-(5-Bromo-2,3-dimethoxybenzamido)ethyl)(ethyl)amino)propyl)-1H-indole-2-carboxamide]
- Ki [1]: 842 nM
- inhibition at 10 µM (Adrenergic beta3): < 50%
- Ki (Adrenergic alpha1D): 7310 nM
- Ki (Muscarinic M1): > 10000 nM
- inhibition at 10 µM (Muscarinic M2): < 50%
- Ki (Serotonin 5-HT3): 92 nM
- inhibition at 10 µM (Muscarinic M4): < 50%

SMILES: CCN(CCCNC(=O)c1ccsc1)CCNC(=O)c1cc(Br)cc(OC)c1OC [21i, N-(3-((2-(5-Bromo-2,3-dimethoxybenzamido)ethyl)(ethyl)amino)propyl)thiophen-e-3-carboxamide]
- Ki [1]: 3200 nM
- Ki (Adrenergic beta3): > 10000 nM
- inhibition at 10 µM (Adrenergic alpha1D): < 50%
- inhibition at 10 µM (Muscarinic M1): < 50%
- inhibition at 10 µM (Muscarinic M2): < 50%
- Ki (Serotonin 5-HT3): 29 nM
- inhibition at 10 µM (Muscarinic M4): < 50%

SMILES: CCN(CCCNC(=O)c1cc2ccccc2n1C)CCNC(=O)c1cc(Br)cc(OC)c1OC [21j, N-(3-((2-(5-Bromo-2,3-dimethoxybenzamido)ethyl)(ethyl)amino)propyl)-1-methyl-1H-indole-2-carboxamide]
- Ki [1]: 1100 nM
- Ki (Adrenergic beta3): 4360 nM
- inhibition at 10 µM (Adrenergic alpha1D): < 50%
- inhibition at 10 µM (Muscarinic M1): < 50%
- Ki (Muscarinic M2): 2970 nM
- Ki (Serotonin 5-HT3): 246 nM
- inhibition at 10 µM (Muscarinic M4): < 50%
